Assay results: patent US11753408B2, “Compounds and method for blocking transmission of malarial parasite” (The United States of America, as represented by the …, priority 2016, dated 2023)
Like-named read-outs stand apart in the source and are kept apart here.

What was measured:
[1] = tested on: Asexual parasites of P. falciparum strain 3D7; assay: In vitro drug activity on asexual parasites (SYBR Green assay); assay type: cell-based, Plasmodium falciparum
In short: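 3D7 parasites at 0.5% parasitemia and 2% hematocrit were exposed to drugs (DMSO ≤0.5%) for 72 h under standard culture conditions, in duplicate. After freeze-thaw lysis, SYBR Green I lysis buffer was added for 30 min at room temperature, and fluorescence was read at 490/520 nm.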

[2] = tested on: Stage III-V gametocytes (blood stage P. falciparum parasites); assay: In vitro drug activity on gametocytes (AlamarBlue viability assay); assay type: cell-based, Plasmodium falciparum; details: P. falciparum stage III-V gametocytes, 72 h incubation, AlamarBlue; read-out: Gametocyte EC50
Description: Cell culture. Asexual parasites of P. falciparum strain 3D7 were cultured as described previously [Trager W, et al., Journal of Parasitology 2005, 91: 484-486], Stage III-V gametocytes were selected and enriched with 3-day treatment with 50 mM N-acetylglucosamine (NAG) and the following Percoll density gradient centrifugation after gametocyte production [Tanaka T Q, et al., Molecular and Biochemical Parasitology, 2011, 111: 160-163], Gametocytes of HB3 and Dd2 strains were produced and then set up for assay in a similar process. HepG2 cells (ATCC, cat. no. 77400) were cultured in 175-cm^2 tissue culture flasks with 30 ml growth medium at 37° C. in a 5% CO2 humidified atmosphere. Growth medium was made with Dulbecco's Modified Eagle Medium with 10% fetal bovine serum (FBS). Growth medium was replaced every other day and cells were passed at 75% confluence.
Compound screening experiments were performed as previously described [Tanaka T Q et al., Molecular and Biochemical Parasitology, 2013, 3188: 20-25], Briefly, 2.5 μl/well incomplete medium was dispensed into each well of 1,536-well plates using the Multidrop Combi followed by 23 nl compound transferring using the NX-TR Pintool (WAKO Scientific Solutions, San Diego, Calif.). 2.5 μl/well of gametocytes was dispensed with a seeding density of 20,000 cells/well using the Multidrop Combi. The assay plates were incubated for 72 h at 37° C. with 5% CO2. After addition of 5 μl/well of 2× AlamarBlue dye (Life Technologies, cat. no. DALI 100), the plates were incubated for 24 h at 37° C. with 5% CO2 and were read in a fluorescence detection mode (Ex=525 nm, Em=598 nm) on a ViewLux plate reader (PerkinElmer).
Stage III-V gametocytes (blood stage P. falciparum parasites) were enriched with treatment with 50 mM N-acetylglucosamine (NAG) and Percoll density gradient centrifugation as described previously^1. Briefly, 2.5 μl/well incomplete medium was dispensed into each well of 1,536-well plates using the Multidrop Combi followed by 23 nl compound transfer using the NX-TR Pintool (WAKO Scientific Solutions, San Diego, Calif.). Then, 2.5 μl/well of gametocytes was dispensed with a seeding density of 20,000 cells/well using the Multidrop Combi. The assay plates were incubated for 72 h at 37° C. with 5% CO2. After addition of 5 μl/well of 2× AlamarBlue dye (Life Technologies, cat. no. DALI 100), the plates were incubated for 24 h at 37° C. with 5% CO2 and then were read in a fluorescence detection mode (Ex=525 nm, Em=598 nm) on a ViewLux plate reader (PerkinElmer).

Solubility at pH 7.4 = assay type: physicochemical
mTOR = mTOR (Homo sapiens, UniProt P42345); assay: mTOR activity (no method described); assay type: biochemical
PAMPA permeability = assay type: in vitro ADME
[3] = Microsomal stability (rat); assay type: in vitro ADME; details: rat microsomes
[4] = P. falciparum 3D7 asexual parasites, 72 h, SYBR Green

Compound | EC50 [1, 4] | EC50 [2] | Sol @ pH 7.4 (ug/mL) (Solubility at pH 7.4) | mTOR (mTOR) | EC50 [1] | PAMPA Permeability (PAMPA permeability) | Sol @ pH 7.4 (Solubility at pH 7.4) | Microsomal Stability (rat) T1/2 [3]
Nc1ccc(-c2ccc3ncc4ccc(=O)n(-c5ccc(S(=O)(=O)NC6CC6)cc5)c4c3c2)cn1 [Compound 82] | 150 nM | 167 nM |  |  |  |  |  | 
O=C1Cc2cc(-n3c(=O)ccc4cnc5ccc(-c6ccc(Cl)cc6)cc5c43)ccc2N1 [Compound 346] | 18.6 nM | 48.4 nM |  |  |  |  |  | 
COc1ccc(C#N)cc1-n1c(=O)ccc2cnc3ccc(-c4ccc(CN(C)C)cc4)cc3c21 [Compound 14] | 113 nM | 425 nM |  |  |  |  |  | 
CN(C)Cc1ccc(-c2ccc3ncc4ccc(=O)n(-c5ccc(S(C)(=O)=O)c(Cl)c5)c4c3c2)cc1 [Compound 63] | 147 nM | 342 nM |  |  |  |  |  | 
NCCc1ccc(-c2ccc3ncc4ccc(=O)n(-c5ccc6c(c5)CNC6=O)c4c3c2)cc1 [Compound 377] |  | 384 nM | 0 ug/mL |  |  |  |  | 
CCN1Cc2cc(-n3c(=O)ccc4cnc5ccc(-c6ccc(Cl)cc6)cc5c43)ccc2C1=O [Compound 351] | 156 nM | 2160 nM |  |  |  |  |  | 
COc1ccc(C#N)cc1-n1c(=O)ccc2cnc3ccc(-c4ccc(Cl)cc4)cc3c21 [Compound 12] | 55.8 nM | 126 nM |  |  |  |  |  | 
N#Cc1cc(-n2c(=O)ccc3cnc4ccc(-c5ccc(F)cc5)cc4c32)ccc1N1CCNCC1 [Compound 15] | 730 nM | 521 nM |  |  |  |  |  | 
COc1cc(C(=O)NC2CCN(CCN(C)C)CC2)ccc1-n1c(=O)ccc2cnc3ccc(-c4ccc(Cl)cc4)cc3c21 [Compound 250] |  |  |  | 2.911 µM | 549 nM | 14.3 ×10⁻⁶ cm/s | 9.5 ug/mL | >30 min
Cc1cc(C(=O)NC2CCN(CCN(C)C)CC2)ccc1-n1c(=O)ccc2cnc3ccc(-c4ccc(Cl)cc4)cc3c21 [Compound 280] |  |  |  | 1.609 µM | 152 nM | 49.1 ×10⁻⁶ cm/s | 73.6 ug/mL | >30 min
Cc1cc(C(=O)NCCCN(C)C)ccc1-n1c(=O)ccc2cnc3ccc(-c4ccc(Cl)cc4)cc3c21 [Compound 275] |  |  |  | 4.039 µM | 44.2 nM | 427 ×10⁻⁶ cm/s | 65.6 ug/mL | 19.9 min
Cc1cc(C(=O)NCCN(C)c2ccccc2)ccc1-n1c(=O)ccc2cnc3ccc(-c4ccc(Cl)cc4)cc3c21 [Compound 292] |  |  |  | 15.56 µM | 1140 nM | 3.4 ×10⁻⁶ cm/s | 0 ug/mL | 1.7 min
N#Cc1cc(-n2c(=O)ccc3cnc4ccc(-c5ccc(Cl)cc5)cc4c32)ccc1N1CCNCC1 [Compound 16] | 23.7 nM | 69.4 nM |  |  |  |  |  | 
CCN(CC)CCCNC(=O)c1ccc(-n2c(=O)ccc3cnc4ccc(-c5ccc(Cl)cc5)cc4c32)c(C)c1 [Compound 290] |  |  |  | 4.806 µM | 64.4 nM | 311 ×10⁻⁶ cm/s | 63.1 ug/mL | 3 min
O=C(NCCN1CCOCC1)c1ccc(-n2c(=O)ccc3cnc4ccc(-c5ccc(Cl)cc5)cc4c32)cc1 [Compound 215] |  |  |  | 0.7638 µM | 178 nM | 492 ×10⁻⁶ cm/s | <1 ug/mL | 6.3 min
O=C(NC1COC1)c1ccc(-n2c(=O)ccc3cnc4ccc(-c5ccc(Cl)cc5)cc4c32)cc1 [Compound 231] |  |  |  | 0.8505 µM | 22.7 nM | 364 ×10⁻⁶ cm/s | <1 ug/mL | 18 min

Compound | EC50 [1, 4] | EC50 [2] | Sol @ pH 7.4 (ug/mL) (Solubility at pH 7.4) | mTOR (mTOR) | EC50 [1] | PAMPA Permeability (PAMPA permeability) | Sol @ pH 7.4 (Solubility at pH 7.4) | Microsomal Stability (rat) T1/2 [3]
O=C(c1ccc(-n2c(=O)ccc3c(F)nc4ccc(-c5ccc(Cl)cc5)cc4c32)cc1)N1CCOCC1 [Compound 235] |  |  |  | 100 µM | 24400 nM | 564 ×10⁻⁶ cm/s | <1 ug/mL | 3.4 min
CCN(CC)CCNC(=O)c1ccc(-n2c(=O)ccc3cnc4ccc(-c5ccc(Cl)cc5)cc4c32)cc1 [Compound 284] |  |  |  | 9.354 µM | 183 nM | 281 ×10⁻⁶ cm/s | 36.6 ug/mL | 7.5 min
COc1cc(-c2ccc3ncc4ccc(=O)n(-c5ccc(C(=O)NC6CC6)cc5)c4c3c2)ccc1Cl [Compound 221] |  |  |  | 1.504 µM | 45.5 nM | 133 ×10⁻⁶ cm/s | <1 ug/mL | 22.2 min
CN(C)CCNC(=O)c1ccc(-n2c(=O)ccc3cnc4ccc(-c5ccc(Cl)cc5)cc4c32)cc1 [Compound 90] |  |  |  | 19.84 µM | 74.1 nM | 802 ×10⁻⁶ cm/s | 13.6 ug/mL | >30 min
N#Cc1cccc(-n2c(=O)ccc3cnc4ccc(-c5ccc(Cl)cc5)cc4c32)c1 [Compound 1] | 27.9 nM | 88.8 nM |  |  |  |  |  | 
CN(CCNC(=O)c1ccc(-n2c(=O)ccc3cnc4ccc(-c5ccc(Cl)cc5)cc4c32)cc1)c1ccccc1 [Compound 298] |  |  |  | 50 µM | 950 nM | 148 ×10⁻⁶ cm/s | 0 ug/mL | 1.5 min
CN(C)CC#Cc1ccc2ncc3c(c2c1)n(-c1cccc(C#N)c1)c(=O)n3C [Compound 396] |  |  |  | 15.14 µM | 144 nM | 208 ×10⁻⁶ cm/s | 46.4 ug/mL | >30 min
Cc1cc(C(=O)NCCCN2CCOCC2)ccc1-n1c(=O)ccc2cnc3ccc(-c4ccc(F)cc4)cc3c21 [Compound 297] |  |  |  | 11.02 µM | 150 nM | 936 ×10⁻⁶ cm/s | 0 ug/mL | 1.6 min
CCN(CC)Cc1ccc(-c2ccc3ncc4ccc(=O)n(-c5ccc(C(=O)NC6CC6)cc5)c4c3c2)cc1 [Compound 243] |  |  |  | 14.6 µM | 677 nM | 382 ×10⁻⁶ cm/s | >76 ug/mL | >30 min
Cc1cc(C(=O)NCCCN(CCO)CCO)ccc1-n1c(=O)ccc2cnc3ccc(-c4ccc(Cl)cc4)cc3c21 [Compound 281] |  |  |  | 2.18 µM | 27.4 nM | 33.4 ×10⁻⁶ cm/s | >86 ug/mL | 3 min
O=C(NC1CC1)c1ccc(-n2c(=O)ccc3cnc4ccc(-c5ccc(Cl)cc5)nc4c32)cc1 [Compound 93] |  |  |  | 0.4507 µM | 27.9 nM | 76.3 ×10⁻⁶ cm/s | <1 ug/mL | >30 min
Nc1cc(-c2ccc3ncc4ccc(=O)n(-c5ccc(C(=O)NC6CC6)cc5)c4c3c2)ccc1Cl [Compound 238] |  |  |  | 0.2148 µM | 56.8 nM | 439 ×10⁻⁶ cm/s | <1 ug/mL | >30 min
O=C(NCCN1CCC1)c1ccc(-n2c(=O)ccc3cnc4ccc(-c5ccc(Cl)cc5)cc4c32)cc1 [Compound 285] |  |  |  | 1.506 µM | 59.7 nM | 159 ×10⁻⁶ cm/s | 41.6 ug/mL | >30 min
Cc1cc(C(=O)NC2CC2)ccc1-n1c(=O)ccc2cnc3ccc(-c4ccc(Cl)c(O)c4)cc3c21 [Compound 225] |  |  |  | 0.9169 µM | 19.8 nM | 735 ×10⁻⁶ cm/s | <1 ug/mL | 23.3 min
CN1Cc2ccc(-c3ccc4ncc5ccc(=O)n(-c6ccc(C(=O)N7CCOCC7)cc6)c5c4c3)cc2C1 [Compound 244] |  |  |  | 7.873 µM | 1640 nM | 216 ×10⁻⁶ cm/s | >76 ug/mL | >30 min
NCCc1ccc(-c2ccc3ncc4ccc(=O)n(-c5ccc(C(=O)NC6CC6)cc5)c4c3c2)cc1 [Compound 240] |  |  |  | 0.4436 µM | 52.9 nM | < 1 ×10⁻⁶ cm/s | 31.6 ug/mL | >30 min
